Converted amounts (≈) assume the structure as drawn.
Experiments:
[1] = test system: C. albicans ATCC 44859; test: Test 1: Action against Candida albicans (in vitro); assay type: cell-based; details: ATCC44859, minimum concentration with apparent suppression of mycelial type growth vs medicament-free control, MEM medium + 10% fetal bovine serum, 37° C., 24 hours, CO2, read-out: Terminal point C. albicans
Method: Test 1: Action against Candida albicans (in vitro)
The resulting mixture was incubated at 37° C. for 24 hours in a CO2 gas incubator. After incubation, a morphological change of C. albicans was observed under an inverted microscope. The minimum medicament concentration permitting the apparent suppression of mycerial type growth compared with that of a medicament-free control was designated as a terminal point (ng/ml).

[2] = test system: A. fumigatus IFM 40808; test: Test 2: Action against Aspergillus fumigatus (in vitro); assay type: cell-based; details: IFM40808, 0.165M MOPS-containing RPMI 1640, pH 7, almar Blue, 35° C., 48 hours
Method: Test 2: Action against Aspergillus fumigatus (in vitro)
They were incubated at 35° C. for 48 hours.

[3] = test system: C. albicans IFM 40009; test: Test 3: Action against Candida albicans (in vivo); set-up: species or system C. albicans; mice (ICR (CRJ: CD-1), male, 4-week-old); details: mice infected i.v. with C. albicans, 1.25 mg/kg oral, 1 hour after inoculation then once a day for 4 days from 24 hours; for Surviving mice on Day 14, number of surviving mice/total number in group: control 0/11; for Average Survival days: control 4.5 days, *** p < 0.001 relative to control
Method: Test 3: Action against Candida albicans (in vivo)
After 4-week-old, male, ICR (CRJ: CD-1) mice were fasted for 6 hours, C. albicans IFM 40009 was inoculated to the tail vein of each of the mice to give an amount of 3.0×10^6 cells/mouse, whereby infection was caused. A control group consisted of 11 mice, while a medicament-administered group consisted of 5 mice. The medicament dissolved in 20% polyethylene glycol was orally administered 1 hour after the inoculation of the fungus and from 24 hours after the inoculation, it was administered once a day for 4 straight days, each in an amount of 1.25 mg/kg. The survival condition on Day 14 after the infection was compared. In addition, the survival days of the control group and the medicament-administered group were detected by the Kaplan-Meier method (Cox mantel test). Incidentally, Fluconazole was employed as a medicament for comparison.

Row | SMILES | MIC [1] [µg/mL] | MIC [2] [µg/mL] | Surviving mice on Day 14, number of surviving mice/total number in group [3] | Average Survival days [3] [days]
1 | O=S(=O)(C1CC1)C(F)(F)C(O)(Cn1cncn1)c1ccc(F)cc1F (single isomer, unassigned; (-)) [Example 17(2), (-)-1-(Cyclopropylsulfonyl)-2-(2,4-difluorophenyl)-1,1-difluoro-3-(1H-1,2,4-triazol-1-yl)-2-propanol] | 0.0156 | 2 (≈ 5.27 µM) | – | –
2 | COC(Cn1cncn1)(c1ccc(F)cc1F)C(F)(F)SC1CC1 (stereo not drawn) [Example 10, 1-[3-(cyclopropylthio)-2-(2,4-difluorophenyl)-3,3-difluoro-2-methoxypropyl]-1H-1,2,4-triazole] | 0.0313 | 32 (≈ 88.6 µM) | – | –
3 | COC(Cn1cncn1)(c1ccc(F)cc1F)C(F)(F)S(=O)(=O)C1CC1 (stereo not drawn) [Example 15, 1-[3-(cyclopropylsulfonyl)-2-(2,4-difluorophenyl)-3,3-difluoro-2-methoxypropyl]-1H-1,2,4-triazole] | – | – | 4/5 | 13.4
4 | OC(Cn1cncn1)(Cn1cncn1)c1ccc(F)cc1F [Fluconazole, reference compound] | 0.25 | > 128 | 1/5 | 11.0

Continued by falling MIC [1], values first:

Row | MIC [1] [µg/mL] | MIC [2] [µg/mL] | SMILES | Surviving mice on Day 14, number of surviving mice/total number in group [3] | Average Survival days [3] [days]
5 | 0.0313 | 8 (≈ 21.1 µM) | O=S(=O)(C1CC1)C(F)(F)C(O)(Cn1cncn1)c1ccc(F)cc1F (racemic) [Example 12, 1-(cyclopropylsulfonyl)-2-(2,4-difluorophenyl)-1,1-difluoro-3-(1H-1,2,4-triazol-1-yl)-2-propanol] | 4/5 | 14.00
6 | 0.0156 | 8 (≈ 24.3 µM) | OC(Cn1cncn1)(c1ccc(F)cc1)C(F)(F)SC1CC1 (stereo not drawn) [Example 8, 1-(cyclopropylthio)-1,1-difluoro-2-(4-fluorophenyl)-3-(1H-1,2,4-triazol-1-yl)-2-propanol] | – | –
7 | 0.0078 | 2 (≈ 5.76 µM) | OC(Cn1cncn1)(c1ccc(F)cc1F)C(F)(F)SC1CC1 (stereo not drawn) [Example 7, 1-(cyclopropylthio)-2-(2,4-difluorophenyl)-1,1-difluoro-3-(1H-1,2,4-triazol-1-yl)-2-propanol] | – | –

From patent publication US6184396A, “Triazole derivative or salt thereof, preparation process thereof and pharmaceutical containing said compound as an effective ingredient” (SSP Co., Ltd., priority 1998, dated 2001)
